Measured values reported in patent US11958856B2, “Substituted 1,2,3,8,9,9a-hexahydro-5H-pyrrolo[1,2-a]azepin-5-ones as factor XIa inhibitors” (Janssen Pharmaceutica NV, priority 2021, dated 2024).
Blank lines part the entries; values can stand above or below the molecule they belong to. Peptide text beside a SMILES is read from it. * marks the point of attachment. 5FAM = O=C1OC2(c3ccc(O)cc3Oc3cc(O)ccc32)c2ccc(C(=O)*)cc21; AMC = Cc1cc(=O)oc2cc(N*)ccc12; Cbz = O=C(OCc1ccccc1)*

Legend:
Format in all cases: biochemical
[1] = target: T1, Factor XIa (Homo sapiens, UniProt P03951); experiment: Kinetic parameters of the peptide substrate with Factor XIa (substrate inhibition model); settings: substrate of FXIa
Text: (§1) A fluorescence intensity (FLINT) based assay was used to monitor inhibition of Factor XIa. The peptide substrate, 5Fam-KLTRAETV-K5Tamra (purchased from New England Peptide) was chosen based on the FXI sequence. Conversion of zymogen FXI to its activated form, FXIa, occurs by proteolytic cleavage by […] at two sites, Arg146 and Arg180. The custom peptide used in this assay was based on the Arg146 cleavage site of FXI. The peptide substrate was designed with a fluorophore-quencher pair, where the fluorescence is quenched until FXIa cleaves the 8-mer peptide after the Arg residue.

[2] = target: T1, Factor XIa; experiment: Factor XIa inhibition assay (FLINT) with fluorophore-quencher pair peptide substrate
Text: Biological Example 1: Factor XIa Inhibition Assay Utilizing a Fluorophore-Quencher Pair Peptide Substrate
as §1
The Factor XIa FLINT assay was used with the following 5Fam-KLTRAETV-K5Tamra assay buffer: 50 mM Tris, pH 7.5, 100 mM NaCl, 5 mM CaCl2, 0.1 mg/mL BSA, 0.03% CHAPS. […]
Test compound(s) were run in an 11-point, 3-fold serial dilution with a final top compound concentration of 100 nM. […] The assay was run with kinetic (KIN) reads at 5 min intervals over 30 minutes. […]
(§2) Percent inhibition (IC50) curves were generated per compound tested, and data was analyzed using a 4-parameter logistic fit using GeneData Screener. The relative fluorescence unit (RFU) values were normalized to percent inhibition using the following equation: % inhibition=((HC−LC)−(compound−LC)/(HC−LC))*100 […]

[3] = target: T2, human plasma kallikrein (Homo sapiens, UniProt P03952); experiment: Kallikrein inhibition assay (FLINT) with quenched AMC peptide substrate; settings: 30 min preincubation; 50 μM Z-Gly-Pro-Arg-AMC substrate; 2 nM kallikrein; top compound concentration 1 μM
Text: Biological Example 2: Kallikrein Inhibition Assay Utilizing a Quenched AMC Peptide Substrate
(§3) A fluorescence intensity (FLINT) based assay was used to monitor inhibition of human plasma kallikrein. The peptide substrate, Z-Gly-Pro-Arg-AMC (Purchased from Bachem; Catalog #I-1150) was chosen based on its relatively low KM for kallikrein which enables running the assay at lower substrate concentrations to control background fluorescence.
The Kallikrein FLINT assay was used with the following Z-Gly-Pro-Arg-AMC assay buffer: 50 mM Tris, pH 7.5, 100 mM NaCl, 5 mM CaCl2, 0.1 mg/mL BSA, 0.03% CHAPS. Assay buffer was prepared by mixing all ingredients fresh. 2× Z-Gly-Pro-Arg-AMC peptide substrate was prepared by diluting 10 mM stock into 1× assay buffer for a 100 μM working concentration (50 μM final concentration). […]
Test compound(s) were run in an 11-point, 3-fold serial dilution with a final top compound concentration of 1 μM. […] The assay was run with kinetic (KIN) reads at 5 min intervals over 30 minutes. […]
as §2

[4] = target: T2, human plasma kallikrein; experiment: Kinetic parameters of the peptide substrate with kallikrein (Michaelis-Menten fit)
Text: as §3

T1 sequence (P03951 388-625 limits assumed): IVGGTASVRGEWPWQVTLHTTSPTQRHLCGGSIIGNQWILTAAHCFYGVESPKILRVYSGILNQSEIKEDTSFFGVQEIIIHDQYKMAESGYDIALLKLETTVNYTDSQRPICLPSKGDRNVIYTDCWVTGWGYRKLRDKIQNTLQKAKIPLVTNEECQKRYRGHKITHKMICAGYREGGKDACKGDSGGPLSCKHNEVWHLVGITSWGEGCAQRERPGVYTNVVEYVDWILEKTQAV
T1 sequence (P03951 19-387 partner limits assumed): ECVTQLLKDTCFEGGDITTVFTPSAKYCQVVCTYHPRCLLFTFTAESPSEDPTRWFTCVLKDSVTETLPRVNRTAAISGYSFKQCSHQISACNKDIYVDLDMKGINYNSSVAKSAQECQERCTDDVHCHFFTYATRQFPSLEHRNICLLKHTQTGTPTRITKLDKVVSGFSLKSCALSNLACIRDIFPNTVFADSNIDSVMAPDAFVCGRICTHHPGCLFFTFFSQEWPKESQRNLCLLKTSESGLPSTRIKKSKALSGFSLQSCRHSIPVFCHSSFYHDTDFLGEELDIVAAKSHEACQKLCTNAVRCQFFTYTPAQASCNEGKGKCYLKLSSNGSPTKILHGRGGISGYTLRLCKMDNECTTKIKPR
T2 sequence (P03952 391-638 limits assumed): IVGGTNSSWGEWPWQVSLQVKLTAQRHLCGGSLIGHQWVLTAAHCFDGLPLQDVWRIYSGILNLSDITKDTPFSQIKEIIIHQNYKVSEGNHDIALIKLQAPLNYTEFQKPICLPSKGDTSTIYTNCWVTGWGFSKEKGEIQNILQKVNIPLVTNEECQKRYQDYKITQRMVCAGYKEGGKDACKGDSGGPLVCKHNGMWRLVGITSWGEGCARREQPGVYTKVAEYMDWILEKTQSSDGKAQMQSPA
T2 sequence (P03952 20-390 partner limits assumed): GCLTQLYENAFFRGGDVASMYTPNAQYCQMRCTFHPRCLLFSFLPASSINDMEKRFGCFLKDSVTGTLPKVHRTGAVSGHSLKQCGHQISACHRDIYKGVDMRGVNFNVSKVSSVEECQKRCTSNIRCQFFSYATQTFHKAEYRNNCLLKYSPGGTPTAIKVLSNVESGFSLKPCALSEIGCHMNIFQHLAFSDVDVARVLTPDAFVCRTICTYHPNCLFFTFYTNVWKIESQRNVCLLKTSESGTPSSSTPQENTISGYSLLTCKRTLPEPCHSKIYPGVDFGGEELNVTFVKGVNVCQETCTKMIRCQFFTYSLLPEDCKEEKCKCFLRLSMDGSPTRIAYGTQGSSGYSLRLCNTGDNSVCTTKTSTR

- Ki [1]: 61600 nM
- Km [1]: 12.4 µM
- kcat [1]: 0.86 s⁻¹
Molecule: 5Fam-KLTRAETV-K5Tamra (5FAM-KLTRAETV-{K(5-TAMRA)}) [fluorophore-quencher pair peptide substrate based on the Arg146 cleavage site of FXI, purchased from New England Peptide]

- IC50 ([2]; 30 min preincubation, 15 μM 5Fam-KLTRAETV-K5Tamra substrate, top compound concentration 100 nM, kinetic read): > 100 nM
- Ki ([2]; same assay as Factor XIa IC50): > 50 nM
- IC50 [3]: 802 nM
Molecule: NC(=O)c1ccc(NC(=O)[C@@H]2CC[C@H]3CCC(c4c(-n5cnnn5)ccc(Cl)c4F)=CC(=O)N32)cc1F [ID No. 20, (3S,9aR)-N-(4-carbamoyl-3-fluorophenyl)-7-(3-chloro-2-fluoro-6-(1H-tetrazol-1-yl)phenyl)-5-oxo-2,3,5,8,9,9a-hexahydro-1H-pyrrolo[1,2-a]azepine-3-carboxamide]

- kcat [4]: 0.76 s⁻¹
Molecule: Cc1cc(=O)oc2cc(NC(=O)[C@H](CCCNC(=N)N)NC(=O)[C@@H]3CCCN3C(=O)CNC(=O)OCc3ccccc3)ccc12 [Z-Gly-Pro-Arg-AMC] (Cbz-Gly-Pro-Arg-{AMC})
